# Assay results as given in PubChem BioAssay AID248 (DTP/NCI, 2004).
# Values joined by “and” are separate entries in the source; they are usually repeats but may differ in a detail not shown here. Equal entries are not always repeated. Toxic doses and inconclusive results are not listed.
# Tested on: L1210 leukemia ip in BDF1 mice, survival T/C
# Test: NCI In Vivo Anticancer Drug Screen. Data for tumor model L1210 Leukemia (intraperitoneal) in B6D2F1 (BDF1) mice
# Details: endpoint: mean survival time, higher = longer survival
# How it was run: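 Each compound was tested against a transplantable tumor grown in mice. The endpoint was survival, with treated animals benchmarked against vehicle controls as a simple ratio.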
# [1] = dose: 100.0 mg/kg/injection, schedule: Q04DX003 (ip), vehicle: saline
# [2] = dose: 200.0 mg/kg/injection, schedule: Q04DX003 (ip), vehicle: saline
# [3] = dose: 400.0 mg/kg/injection, schedule: Q04DX003 (ip), vehicle: saline
# [4] = dose: 50.0 mg/kg/injection, schedule: Q01DX009 (ip), vehicle: Klucel (hydroxypropylcellulose) (HPC)
# [5] = dose: 100.0 mg/kg/injection, schedule: Q01DX009 (ip), vehicle: Klucel (hydroxypropylcellulose) (HPC)
# [6] = dose: 200.0 mg/kg/injection, schedule: Q01DX009 (ip), vehicle: Klucel (hydroxypropylcellulose) (HPC)
# [7] = dose: 100.0 mg/kg/injection, schedule: Q01DX001 (ip), vehicle: saline
# [8] = dose: 200.0 mg/kg/injection, schedule: Q01DX001 (ip), vehicle: saline
# [9] = dose: 400.0 mg/kg/injection, schedule: Q01DX001 (ip), vehicle: saline
# [10] = dose: 100.0 mg/kg/injection, schedule: Q01DX009 (ip), vehicle: saline
# [11] = dose: 200.0 mg/kg/injection, schedule: Q01DX009 (ip), vehicle: saline
# [12] = dose: 50.0 mg/kg/injection, schedule: Q01DX009 (ip), vehicle: saline with Tween-80
# [13] = dose: 100.0 mg/kg/injection, schedule: Q01DX009 (ip), vehicle: saline with Tween-80
# [14] = dose: 200.0 mg/kg/injection, schedule: Q01DX009 (ip), vehicle: saline with Tween-80
# [15] = dose: 100.0 mg/kg/injection, schedule: Q01DX001 (ip), vehicle: Klucel (hydroxypropylcellulose) (HPC)
# [16] = dose: 100.0 mg/kg/injection, schedule: Q04DX003 (ip), vehicle: Klucel (hydroxypropylcellulose) (HPC)
# [17] = dose: 200.0 mg/kg/injection, schedule: Q04DX003 (ip), vehicle: Klucel (hydroxypropylcellulose) (HPC)
# [18] = dose: 400.0 mg/kg/injection, schedule: Q01DX009 (ip), vehicle: Klucel (hydroxypropylcellulose) (HPC)
# [19] = dose: 400.0 mg/kg/injection, schedule: Q04DX003 (ip), vehicle: Klucel (hydroxypropylcellulose) (HPC)
smiles,measurement,setting,value
COc1c2c(c(OC)c3ccccc13)C(=O)c1ccccc1C2=O,T/C,"dose: 50.0 mg/kg/injection, schedule: Q01DX005 (ip), vehicle: saline",94 % of control
same,T/C,"dose: 100.0 mg/kg/injection, schedule: Q01DX005 (ip), vehicle: saline",91 % of control
same,T/C,"dose: 200.0 mg/kg/injection, schedule: Q01DX005 (ip), vehicle: saline",91 % of control
ClCCN1CCOC1=Nc1ccccc1,T/C,"dose: 100.0 mg/kg/injection, schedule: Q01DX001 (ip), vehicle: other",105 % of control
same,T/C,"dose: 200.0 mg/kg/injection, schedule: Q01DX001 (ip), vehicle: other",105 % of control
same,T/C,"dose: 400.0 mg/kg/injection, schedule: Q01DX001 (ip), vehicle: other",100 % of control
CC(NC(=O)/C=C\C(=O)O)c1ccccc1 (stereo unspecified),T/C,[1],92 % of control
same,T/C,[2],102 % of control
same,T/C,[3],103 % of control
O=[N+]([O-])c1ccc2scc3c4ccccc4nc-3c2c1,T/C,"dose: 4.37 mg/kg/injection, schedule: Q01DX009 (ip), vehicle: Klucel (hydroxypropylcellulose) (HPC)",95 % of control
same,T/C,"dose: 8.75 mg/kg/injection, schedule: Q01DX009 (ip), vehicle: Klucel (hydroxypropylcellulose) (HPC)",101 % of control
same,T/C,"dose: 12.5 mg/kg/injection, schedule: Q04DX003 (ip), vehicle: saline",101 % of control
same,T/C,"dose: 17.5 mg/kg/injection, schedule: Q01DX009 (ip), vehicle: Klucel (hydroxypropylcellulose) (HPC)",89 % of control
same,T/C,"dose: 25.0 mg/kg/injection, schedule: Q04DX003 (ip), vehicle: saline",101 % of control
CC(=O)Nc1cc([As](=O)(O)O)ccc1O,T/C,[4],105 % of control
same,T/C,[5],102 % of control
same,T/C,[6],97 % of control
CNC(=O)Oc1cccc(C(F)(F)F)c1,T/C,"dose: 100.0 mg/kg/injection, schedule: Q01DX001 (ip), vehicle: carboxymethylcellulose (CMC)",90 % of control
same,T/C,"dose: 200.0 mg/kg/injection, schedule: Q01DX001 (ip), vehicle: carboxymethylcellulose (CMC)",98 % of control
same,T/C,"dose: 400.0 mg/kg/injection, schedule: Q01DX001 (ip), vehicle: carboxymethylcellulose (CMC)",92 % of control
Cc1c(C(C)(C)c2ccccc2)[nH]c2ccc(C(C)(C)c3ccccc3)cc12,T/C,[7],88 % of control
same,T/C,[8],86 % of control
same,T/C,[9],96 % of control
COC(=O)C1=C(C(=O)OC)C2(O)c3ccccc3C1c1ccccc12,T/C,[10],100 % of control
same,T/C,[11],93 % of control
same,T/C,"dose: 400.0 mg/kg/injection, schedule: Q01DX009 (ip), vehicle: saline",88 % of control
CCOC(=O)/C(O)=C\c1cc(Cl)nnc1Cl,T/C,"dose: 162.5 mg/kg/injection, schedule: Q04DX002 (ip), vehicle: Klucel (hydroxypropylcellulose) (HPC)",100 % of control
same,T/C,"dose: 325.0 mg/kg/injection, schedule: Q04DX002 (ip), vehicle: Klucel (hydroxypropylcellulose) (HPC)",95 % of control
COc1ccc2c(c1)CN(C)CC2,T/C,"dose: 75.0 mg/kg/injection, schedule: Q01DX001 (ip), vehicle: other",108 % of control
Cc1ccc(S(=O)(=O)On2cccc2C#N)cc1,T/C,"dose: 25.0 mg/kg/injection, schedule: Q01DX009 (ip), vehicle: saline with Tween-80",102 % of control
same,T/C,[12],94 % of control and 96 % of control
same,T/C,[13],98 % of control
same,T/C,[14],97 % of control and 102 % of control
CC(=O)c1cc(C)c(O)cc1C,T/C,"dose: 100.0 mg/kg/injection, schedule: Q04DX002 (ip), vehicle: saline with Tween-80",103 % of control
same,T/C,"dose: 200.0 mg/kg/injection, schedule: Q04DX002 (ip), vehicle: saline with Tween-80",92 % of control
same,T/C,"dose: 400.0 mg/kg/injection, schedule: Q04DX002 (ip), vehicle: saline with Tween-80",111 % of control
COc1cc(-c2ccc(N)c(OC)c2)ccc1N,T/C,"dose: 62.5 mg/kg/injection, schedule: Q01DX Z (ip), vehicle: saline",90 % of control
same,T/C,"dose: 222.0 mg/kg/injection, schedule: Q01DX Z (ip), vehicle: methylcellulose (MC)",108 % of control
same,T/C,"dose: 333.0 mg/kg/injection, schedule: Q01DX Z (ip), vehicle: methylcellulose (MC)",90 % of control
CO/[N+]([O-])=C\C(=O)N/C=C/C(=O)O,T/C,"dose: 13.3 mg/kg/injection, schedule: Q01DX Z (ip), vehicle: carboxymethylcellulose (CMC)",93 % of control
same,T/C,"dose: 20.0 mg/kg/injection, schedule: Q01DX Z (ip), vehicle: carboxymethylcellulose (CMC)",101 % of control
N#Cc1ncc(-c2ccc(Cl)cc2)nc1Cl,T/C,[10],105 % of control
same,T/C,[1],91 % of control
same,T/C,[11],113 % of control
same,T/C,[2],93 % of control
same,T/C,[3],95 % of control
O=C(NC(=O)C(Cl)Cl)Nc1ccc2c(c1)Cc1ccccc1-2,T/C,[15],95 % of control
same,T/C,[5],100 % of control
same,T/C,[16],102 % of control
same,T/C,"dose: 200.0 mg/kg/injection, schedule: Q01DX001 (ip), vehicle: Klucel (hydroxypropylcellulose) (HPC)",100 % of control
same,T/C,[6],98 % of control
same,T/C,[17],96 % of control
same,T/C,"dose: 400.0 mg/kg/injection, schedule: Q01DX001 (ip), vehicle: Klucel (hydroxypropylcellulose) (HPC)",100 % of control
same,T/C,[18],104 % of control
same,T/C,[19],96 % of control
c1ccc([P+](c2ccccc2)(c2ccccc2)C2OCCO2)cc1,T/C,"dose: 25.0 mg/kg/injection, schedule: Q04DX003 (ip), vehicle: saline with Tween-80",95 % of control
same,T/C,"dose: 50.0 mg/kg/injection, schedule: Q04DX003 (ip), vehicle: saline with Tween-80",103 % of control
CCN=C(c1ccc(NC(=O)c2ccc(C(=O)Nc3ccc(C(=NCC)N(CC)C(=O)NCC(=O)OCC)cc3)cc2)cc1)N(CC)C(=O)NCC(=O)OCC,T/C,"dose: 3.12 mg/kg/injection, schedule: Q01DX015 (ip), vehicle: methylcellulose (MC)",109 % of control
same,T/C,"dose: 12.5 mg/kg/injection, schedule: Q01DX015 (ip), vehicle: methylcellulose (MC)",155 % of control
same,T/C,"dose: 25.0 mg/kg/injection, schedule: Q01DX015 (ip), vehicle: methylcellulose (MC)",101 % of control
CN(C)S(=O)(=O)Nc1cc(Cl)c(NS(=O)(=O)N(C)C)cc1Cl,T/C,[5],94 % of control
same,T/C,[16],91 % of control
same,T/C,[6],96 % of control
same,T/C,[17],93 % of control
same,T/C,[18],102 % of control
same,T/C,[19],98 % of control
CCCCCCCCCCCCCCCCCc1c(Cl)c(Cl)c(Cl)c(Cl)c1Cl,T/C,[15],90 % of control
COc1ccc(NC(C)=O)cc1OC,T/C,"dose: 100.0 mg/kg/injection, schedule: Q04DX002 (ip), vehicle: saline",95 % of control
same,T/C,"dose: 200.0 mg/kg/injection, schedule: Q04DX002 (ip), vehicle: saline",98 % of control
same,T/C,"dose: 400.0 mg/kg/injection, schedule: Q04DX002 (ip), vehicle: saline",92 % of control
O=C(NCCCl)NCc1ccccc1,T/C,[16],103 % of control
same,T/C,[17],107 % of control
same,T/C,[19],113 % of control
CCOC(=O)CCC(N)C(=O)OCC (stereo unspecified),T/C,[7],95 % of control and 91 % of control
same,T/C,[10],96 % of control
same,T/C,[8],91 % of control
same,T/C,[11],88 % of control
same,T/C,[9],98 % of control and 86 % of control
CC(C)(C)CC(C)(C)c1ccc(OCCOC(=O)c2ccccc2C(=O)O)cc1,T/C,"dose: 25.0 mg/kg/injection, schedule: Q01DX009 (ip), vehicle: Klucel (hydroxypropylcellulose) (HPC)",97 % of control
same,T/C,[4],105 % of control
same,T/C,[5],94 % of control
N#Cc1ncc(-c2ccccc2)nc1Cl,T/C,[12],94 % of control
same,T/C,[13],96 % of control
same,T/C,"dose: 100.0 mg/kg/injection, schedule: Q04DX003 (ip), vehicle: saline with Tween-80",97 % of control
same,T/C,[14],92 % of control
same,T/C,"dose: 200.0 mg/kg/injection, schedule: Q04DX003 (ip), vehicle: saline with Tween-80",95 % of control
O=C(Nc1cccc(Cl)c1)Oc1ccc(C2CCCCC2)cc1,T/C,"dose: 100.0 mg/kg/injection, schedule: Q04DX002 (ip), vehicle: Klucel (hydroxypropylcellulose) (HPC)",104 % of control
same,T/C,"dose: 200.0 mg/kg/injection, schedule: Q04DX002 (ip), vehicle: Klucel (hydroxypropylcellulose) (HPC)",99 % of control
same,T/C,"dose: 400.0 mg/kg/injection, schedule: Q04DX002 (ip), vehicle: Klucel (hydroxypropylcellulose) (HPC)",101 % of control
CCOC(=O)C=C1CCP(C)CC1 (stereo unspecified),T/C,"dose: 75.0 mg/kg/injection, schedule: Q01DX001 (ip), vehicle: carboxymethylcellulose (CMC)",103 % of control
same,T/C,"dose: 150.0 mg/kg/injection, schedule: Q01DX001 (ip), vehicle: carboxymethylcellulose (CMC)",94 % of control
